Test results reported in patent publication US20040029968A1, “Nateglinide-containing hydrophilic pharmaceutical preparation” (AJINOMOTO CO. INC, priority 2000, published 2004).

Assay: Contact angle of the preparation surface to water
Type: physicochemical
Conditions: flat, smooth tablets prepared from the crystals; water dropped onto the surface
Description: The term “contact angle to water” as employed herein means an angle wherein drops of water to be deposited to the surface of preparation compositions such as tablets and the like contact with said surface, which can be used as an indication of hydrophilic nature. For example, such contact angle is measured by forming 1 μL of droplet of pure water (MILLI-Q; MILLIPORE Co.) on the tip of needle (SNSO 52/026; made from stainless steel, inner diameter of 0.26 mm, outer diameter of 0.52 mm; HAMILTON Co.) and evaluating the contact angle at 60 m sec. after the droplet arrives onto the surface of tablet, using a contact angle measuring device (OCA-15 type; Data Physics Co.). When the surface of tablet has curvature, such contact angle is measured by correcting this curvature to straight line at the time when analysis is conducted. Usually, the contact angle is usually measured at room temperature.
As for preparations of which forms are not tablets, contact angles can be measured after molding powders, granules, semisolids and the like contained in such preparation. For example, in the case of capsules, the contact angle thereof can be determined by removing the contents of capsules and molding 200 mg of the contents into a tablet having diameter of 8 mm and thickness of 3.50 mm and having flat and smooth surface.

| Structure (SMILES) | contact angle of the surface of tablets to water |
| --- | --- |
| CC(C)[C@H]1CC[C@H](C(=O)N[C@H](Cc2ccccc2)C(=O)O)CC1 [nateglinide B-type crystals, N-(trans-4-isopropylcyclohexanecarbonyl)-D-phenylalanine] | 95 degree |
| CC(C)[C@H]1CC[C@H](C(=O)N[C@H](Cc2ccccc2)C(=O)O)CC1 [nateglinide H-type crystals, N-(trans-4-isopropylcyclohexanecarbonyl)-D-phenylalanine] | 85 degree |
